Source: patent publication US6358883B1, “Pesticidal and parasiticidal use of 1-aryl-1-(substituted thio, sulfinyl and sulfonyl)-2-nitroethane compounds” (American Cyanamid Company, priority 1998, dated 2002)

How the values were obtained:
Type in all cases: in vivo
[1] = tested on: M. incognita (Root Knot Nematode) larvae; test: Evaluation of test compounds against M. incognita larvae in microtiter plate wells (movement score); conditions: larvae scored for movement after 20-24 hours; note: key: A score of '9' indicates inactive worms with a straight, sticklike morphology; A score of '8' indicates inactive worms with a limp, curled or curved morphology; A score of '7' indicates dead/paralyzed worms after 72 hours
How it was run: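 Scoring is by larval movement: dead or paralyzed worms count as positive, and a "7" means dead/paralyzed at 72 hours. Freshly hatched root-knot larvae (50-65 per well) in buffered S Medium were incubated with compounds under plate sealers for 20-24 h before the first read.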

[2] = tested on: C. elegans (Bristol strain); test: Evaluation of test compounds against C. elegans (motility, 96-well plate); design: key: 9=complete kill in 4 hours; 8=complete kill in 24 hours; 7=markedly reduced motility in approximately 95% of worms in 24 hours; 0=normal motility, same as controls; conditions: motility at 4 and 24 hours
How it was run: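 Activity is a semi-quantitative visual score of adult and larval movement, read at 4 h and 24 h post-immersion at 20 °C after gentle tapping. Worms were suspended in Na buffer in wells where compound, dissolved in 80% acetone, had been evaporated.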

[3] = tested on: Spodoptera eridania, 2nd instar larvae, southern armyworm (SAW); test: Southern armyworm (SAW) leaf dip test; design: key: 0 = no effect; 1 = 10-25% kill; 2 = 26-35% kill; 3 = 36-45% kill; 4 = 46-55% kill; 5 = 56-65% kill; 6 = 66-75% kill; 7 = 76-85% kill; 8 = 86-99% kill; 9 = 100% kill
How it was run: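 Ten 2nd instar caterpillars feed on a Sieva lima bean leaf that was dipped 3 seconds in test solution (stock 10,000 ppm in 35% acetone/water, water-diluted). Five days later, larvae are assessed for death, feeding reduction or abnormal molting.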

[4] = tested on: Diabrotica virgifera virgifera Leconte, 2nd instar western corn rootworm (WCR); test: Western corn rootworm (WCR) soil test; design: key: 0 = no effect; 1 = 10-25% kill; 2 = 26-35% kill; 3 = 36-45% kill; 4 = 46-55% kill; 5 = 56-65% kill; 6 = 66-75% kill; 7 = 76-85% kill; 8 = 86-99% kill; 9 = 100% kill
How it was run: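 Ten 2nd-instar rootworm larvae are placed in jars of moist soil with millet seed and talc treated with 1.25 mg active ingredient (roughly 50 kg/ha) from a 35% acetone-in-water solution. After 5 days mortality is scored, counting missing larvae as dead.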

[5] = tested on: Tetranychus urticae (OP-resistant strain), 2-spotted spider mite (TSM); test: 2-spotted spider mite (TSM) plant dip test; design: key: 0 = no effect; 1 = 10-25% kill; 2 = 26-35% kill; 3 = 36-45% kill; 4 = 46-55% kill; 5 = 56-65% kill; 6 = 66-75% kill; 7 = 76-85% kill; 8 = 86-99% kill; 9 = 100% kill; conditions: mortality after 2 days
How it was run: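 Mortality counted 2 days after a 3 s agitated dip of infested Sieva lima bean plants. Compound came from a 10,000 ppm stock in 35% aqueous acetone, with further dilution in water. Each primary leaf carried about 100 OP-resistant mites, allowed to settle ~2 h before dipping.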

[6] = tested on: Aphis gossypii, cotton aphid (CA); test: Cotton aphid (CA) cotyledon dip test; design: key: 0 = no effect; 1 = 10-25% kill; 2 = 26-35% kill; 3 = 36-45% kill; 4 = 46-55% kill; 5 = 56-65% kill; 6 = 66-75% kill; 7 = 76-85% kill; 8 = 86-99% kill; 9 = 100% kill; conditions: mortality after 5 days
How it was run: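 Mortality was scored 5 days after dipping aphid-infested cotyledons, colonised overnight from a transfer leaf, into water dilutions of a 35% acetone/water compound solution.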

[7] = tested on: Spodoptera eridania, eggs-southern armyworm (SAW-Eggs); test: Southern armyworm eggs (SAW-Eggs) treated diet test; design: key: 0 = no effect; 1 = 10-25% kill; 2 = 26-35% kill; 3 = 36-45% kill; 4 = 46-55% kill; 5 = 56-65% kill; 6 = 66-75% kill; 7 = 76-85% kill; 8 = 86-99% kill; 9 = 100% kill; conditions: mortality after 7 days
How it was run: (§1)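 Eggs of S. eridania or D. undecimpunctata howardi were set on artificial diet pretreated with test solution (10,000 ppm stock in 35% aqueous acetone, water dilutions) and dried. Wells were sealed with vented clear covers, and mortality was scored at day 7.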

[8] = tested on: Diabrotica undecimpunctata howardi, eggs-southern corn rootworm (SCR-Eggs); test: Southern corn rootworm eggs (SCR-Eggs) treated diet test; design: key: 0 = no effect; 1 = 10-25% kill; 2 = 26-35% kill; 3 = 36-45% kill; 4 = 46-55% kill; 5 = 56-65% kill; 6 = 66-75% kill; 7 = 76-85% kill; 8 = 86-99% kill; 9 = 100% kill; conditions: mortality after 7 days
How it was run: as §1

SMILES	M. incognita (150 ppm) score [1]	Rating Against C. elegans (150 ppm) [2]	SAW (300 ppm) rating [3]	WCR (50 ppm) rating [4]	TSM (300 ppm) rating [5]	CA (300 ppm) rating [6]	SAW Eggs (300 ppm) rating [7]	SCR Eggs (1000 ppm) rating [8]
CCOC(=O)CSC(C[N+](=O)[O-])c1cccnc1 (centres unmarked) [Example 172]	9	8	0	0	0	0	0	0
CCCOC(=O)CSC(C[N+](=O)[O-])c1c(Cl)cccc1Cl (centres unmarked) [Example 133]	0	0	0	0	0	0	0	9 (9 = 100% kill)
O=[N+]([O-])CC(SCc1ccccc1)c1ccc2c(c1)OCO2 (centres unmarked) [Example 23]	8	7	8 (8 = 86-99% kill)	4 (4 = 46-55% kill)	0	4 (4 = 46-55% kill)	9 (9 = 100% kill)	9 (9 = 100% kill)
O=[N+]([O-])CC(SCc1ccccc1)c1ccc2ccccc2c1 (racemic) [Example 116]	0	0	0	0	0	0	0	0
O=C(O)CSC(C[N+](=O)[O-])c1c(Cl)cccc1Cl (centres unmarked) [Example 130]	9	9	0	3 (3 = 36-45% kill)	0	0	0	0
O=C(CSC(C[N+](=O)[O-])c1cccnc1)OCc1ccccc1 (centres unmarked) [Example 174]	9	0	0	0	0	0	0	0
CCCCC(CC)COC(=O)CSC(C[N+](=O)[O-])c1cccc(OC)c1 (centres unmarked) [Example 59]	0	0	0	0	0	0	0	0
CCCOC(=O)CSC(C[N+](=O)[O-])c1ccc(OC)cc1 (racemic) [Example 102]	9	9	0	0	0	0	0	0
COc1cccc(C(C[N+](=O)[O-])SCC(=O)OCc2ccccc2)c1 (racemic) [Example 107]	0	0	0	0	0	0	0	0
CCCCOC(=O)CSC(C[N+](=O)[O-])c1cccc(OC)c1 (centres unmarked) [Example 57]	9	7	0	0	0	0	0	0
C=CCSC(C[N+](=O)[O-])c1ccccc1 (centres unmarked) [Example 2]	9	0	–	–	–	–	0	0
CCCOC(=O)CSC(C[N+](=O)[O-])c1c(F)c(F)c(F)c(F)c1F (centres unmarked) [Example 144]	–	7	0	9 (9 = 100% kill)	0	0	0	0
COC(=O)CSC(C[N+](=O)[O-])c1c(F)c(F)c(F)c(F)c1F (centres unmarked) [Example 140]	–	8	6 (6 = 66-75% kill)	9 (9 = 100% kill)	0	0	0	0
CCCCOC(=O)CSc1c(F)c(F)c(C(C[N+](=O)[O-])SCC(=O)OCCCC)c(F)c1F (centres unmarked) [Example 147]	–	0	0	0	0	0	0	0
O=[N+]([O-])CC(SCc1ccccc1)c1ccco1 (centres unmarked) [Example 203]	–	9	0	8 (8 = 86-99% kill)	0	0	9 (9 = 100% kill)	9 (9 = 100% kill)
CCOC(=O)CSC(C[N+](=O)[O-])c1c(F)c(F)c(F)c(F)c1F (centres unmarked) [Example 142]	–	8	0	9 (9 = 100% kill)	0	4 (4 = 46-55% kill)	0	0
